Entries after “also recorded” stand apart in the source; their conditions may differ.
Key:
[1] = system: dsRNA (20 bp poly GC and poly AU); experiment: Binding of spiropyran (SP) or merocyanine (MC) and dsRNA, UV-Vis spectrometer; conditions: 12 μM solution, 20 bp poly GC and poly AU added, MC after 254 nm UV for 5 minutes
Method: The interaction of spiropyran (SP) or merocyanine (MC) with dsRNA was confirmed using a UV-Vis spectrometer. The spiropyran produced in Example 1 was prepared as a spiropyran solution (12 μM), and dsRNA was prepared by ordering 20 bp poly GC and poly AU from Bioneer Co., Ltd., respectively. After adding 200 μM of poly GC and poly AU to the spiropyran solution, spectral results were obtained using a UV-Vis spectrometer. The spiropyran produced in Example 1 was prepared as a spiropyran solution (12 μM), and dsRNA was prepared by ordering 20 bp poly GC and poly AU from Bioneer Co., Ltd., respectively. After irradiating 254 nm UV to the spiropyran solution for 5 minutes, poly GC and poly AU were added, respectively. Then, spectral results were obtained using a UV-Vis spectrometer.

poly AU and poly GC = experiment: Effect of dsRNA on reversibility of SP and MC; type: physicochemical; conditions: 200 μM poly AU or poly GC in sodium ion buffer; UV and 420 nm light alternately, 5 cycles at 1 minute intervals
Method: The SP and MC in the isomer relationship can be converted reversibly to each other by irradiating UV or visible light. To confirm the effect of dsRNA on the reversibility of SP-MC, SP and 200 μM poly AU and poly GC were added to sodium ion buffer, respectively, and absorbance was measured by alternately irradiating the mixture with UV and 420 nm […] light in 5 cycles at 1 minute intervals. At this time, water was used instead of RNA as the control.

[2] = system: HCT116 colorectal cancer cells; experiment: Apoptosis observed under a microscope; type: cell-based; conditions: 5-AZA-CdR 500 nM, day 5
[3] = system: PANC-1 pancreatic cancer cells; experiment: Degree of apoptosis by MTT assay; type: cell-based; conditions: 5-AZA-CdR 500 nM
Method: (§1) HCT116 colorectal cancer cells, PANC-1 pancreatic cancer cells, MCF-7 breast cancer cells, A549 lung cancer cells and A375 melanoma cells were treated with 5-AZA-CdR in the same manner as described in Experimental Example <10-1>, and the degree of apoptosis was measured by MTT assay.

[4] = system: HCT116 colorectal cancer cells; experiment: Degree of apoptosis by MTT assay; type: cell-based; conditions: 5-AZA-CdR 500 nM
Method: as §1

A549 lung cancer cells [5] = experiment: Degree of apoptosis by MTT assay; type: cell-based; conditions: 5-AZA-CdR 500 nM
Method: as §1

A375 melanoma cells [6] = experiment: Degree of apoptosis by MTT assay; type: cell-based; conditions: 5-AZA-CdR 500 nM
Method: as §1

[7] = system: MCF-7 breast cancer cells; experiment: Degree of apoptosis by MTT assay; type: cell-based; conditions: 5-AZA-CdR 500 nM
Method: as §1

[8] = system: PANC-1 pancreatic cancer cells; experiment: dsRNA absorbance change rate after 5-AZA-CdR treatment; type: cell-based; conditions: 5-AZA-CdR 500 nM, day 7 compared to day 0
Method: (§2) To compare the expression level of dsRNA between cancer cells and normal cells, total RNA was extracted by treating TRIsure reagents (Bioline) to 3 types of cancer cell lines (HeLa cervical cancer cells, HCT116 colorectal cancer cells and A549 lung cancer cells) and 2 types of normal cell lines (CCD-986sk cells and RPE-1 cells), respectively. The extracted total RNA (30 μg) was treated with RNase T1 (Worthington Inc.) in a volume of 1/10, and incubated at 37° C. for 30 minutes to remove ssRNA and rRNA. Then, dsRNA was purified using a phenol extraction method. The final concentration of the purified dsRNA was adjusted to 350 μM using tertiary distilled water, to which the spiropyran solution (12 μM, dissolved in tertiary distilled water) was added. After irradiating UV to the mixture, the rate of change in absorbance at 512 nm was measured for 2 minutes. The rate of change in absorbance was calculated in comparison with the control group using tertiary distilled water instead of dsRNA.
(§3) In addition, PANC-1 pancreatic cancer cells, MCF-7 breast cancer cells, A549 lung cancer cells and A375 melanoma cells were treated with 5-AZA-CdR (500 nM), respectively, and cultured for 24 hours. The medium was replaced with fresh medium and the cells were collected on days 0, 1, 3, 5 and 7 to isolate dsRNA. The rate of change in absorbance of dsRNA in cancer cells was measured in the same manner as described in Example 1.

A549 lung cancer cells [9] = experiment: as above; type: cell-based; conditions: 5-AZA-CdR 500 nM, days 0-7
Method: as §2, §3

A375 melanoma cells [10] = experiment: as above; type: cell-based; conditions: 5-AZA-CdR 500 nM, days 0-7
Method: as §2, §3

[11] = system: MCF-7 breast cancer cells; experiment: as above; type: cell-based; conditions: 5-AZA-CdR 500 nM, day 7 compared to day 0
Method: as §2, §3

[12] = system: HeLa cervical cancer cells; experiment: Apoptosis observed under a microscope; type: cell-based; conditions: 5-AZA-CdR 500 nM, day 5
[13] = system: ERV (THE1B, MTL2B4, MLT1C49 and MER21C) in HCT116 colorectal cancer cells; experiment: RT-PCR (qPCR) to confirm ERV expression; type: cell-based; conditions: 5-AZA-CdR 500 nM
Method: According to a recent study, 5-AZA-CdR has been reported to promote apoptosis by increasing untranslated RNA called ERV (endogenous retroviral element), the dsRNA. Thus, whether the expression of ERV ([…], MTL2B4, MLT1C49 and MER21C genes) was increased by 5-AZA-CdR treatment was investigated.
Total RNA was isolated from the HCT116 colorectal cancer cells treated with 5-AZA-CdR in the same manner as described in Experimental Example <10-1>, to which DNase I was treated, and then cDNA was synthesized using RevertAid reverse transcriptase (Thermo Fisher Scientific). Using the synthesized cDNA as a template, qPCR was performed with the primers in Table 1 below.

[14] = system: HeLa cervical cancer cells; experiment: dsRNA absorbance change rate after 5-AZA-CdR treatment; type: cell-based; conditions: 5-AZA-CdR 500 nM 24 hours, day 5 vs day 0
Method: as §2
(§4) HCT116 colorectal cancer cells and HeLa cervical cancer cells were treated with 5-AZA-CdR (500 nM), respectively, and cultured for 24 hours. The medium was replaced with fresh medium and the cells were collected on days 0, 1, 3 and 5 to isolate dsRNA. The rate of change in absorbance of dsRNA in cancer cells was measured in the same manner as described in Experimental Example 9.

[15] = system: HCT116 colorectal cancer cells; experiment: as above; type: cell-based; conditions: 5-AZA-CdR 500 nM 24 hours, days 0, 1, 3 and 5
Method: as §2, §4

Row | SMILES | binding to dsRNA (change in UV-Vis absorbance spectrum) [1] | binding to dsRNA (change in UV-Vis absorbance spectrum) ([1]; listed as spiropyran) | reversibility of SP-MC (poly AU and poly GC) | apoptosis [2] | growth decreased compared to untreated control [3] | growth reduced compared to untreated control [4] | growth decreased compared to untreated control (A549 lung cancer cells [5]) | growth compared to untreated control (A375 melanoma cells [6]) | growth decreased compared to untreated control [7] | dsRNA expression (rate of change in absorbance) [8] | dsRNA expression (rate of change in absorbance) (A549 lung cancer cells [9]) | dsRNA expression (rate of change in absorbance) (A375 melanoma cells [10]) | dsRNA expression (rate of change in absorbance) [11] | apoptosis [12] | expression level of MER21C, increase compared to day 0 ([13]; day 5) [times] | expression levels of THE1B, MTL2B4, MLT1C49 and MER21C ([13]; days 0 and 1) | expression levels of THE1B, MTL2B4, MLT1C49 and MER21C ([13]; from day 3) | rate of change in absorbance at 512 nm (dsRNA expression) [14] | rate of change in absorbance at 512 nm (dsRNA expression) [15]
1 | CC1(C)c2ccccc2N(CCC[N+](C)(C)C)C12C=Cc1cc([N+](=O)[O-])ccc1O2 (stereo not shown) [SP, 1′-(3″-trimethylammoniopropyl)-3′,3′-dimethyl-6-nitrospiro[(2H)-1-benzopyran-2,2′-indoline]iodide] | did not bind to dsRNA | not combined with dsRNA | maintained independently from the presence or absence of dsRNA | – | – | – | – | – | – | – | – | – | – | – | – | – | – | – | –
2 | Nc1ncn([C@H]2C[C@H](O)[C@@H](CO)O2)c(=O)n1 [Example 5-AZA-CdR, 5-aza-2′-deoxycytidine] | – | – | – | apoptosis induced by 5-AZA-CdR was observed | about 20% | about 40% | about 10% | not reduced | about 20% | slightly increased; also recorded: slight increase | no change; also recorded: little change | no change; also recorded: little change | slightly increased; also recorded: slight increase | apoptosis was not observed | 100 | almost unchanged | increased; also recorded: began to increase from day 3 | almost unchanged; also recorded: almost similar to that of day 0 | increased from day 3; also recorded: gradually increased with time
